From PubChem BioAssay (NCI)
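Dose response: 5 concentrations. Exposure: 48 h. Format: 96-well plates. Endpoint: linear interpolation; highest concentration if not reached. TGI marks complete inhibition of growth.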

Tests used:
Assay in all cases: inhibition of tumour cell growth, NCI panel, 48 h
[1] = tested on: 786-0 renal
[2] = tested on: RPMI-8226 leukemia
[3] = tested on: SF-539 CNS
[4] = tested on: K-562 leukemia
[5] = tested on: OVCAR-5 ovarian
[6] = tested on: A549 NSCLC
[7] = tested on: SK-MEL-2 melanoma
[8] = tested on: NCI-H460 lung
[9] = tested on: SK-MEL-28 melanoma
[10] = tested on: PC-3 prostate
[11] = tested on: DU-145 prostate
[12] = tested on: OVCAR-4 ovarian

Work on COc1ccc(C2SCC(=O)N2c2ccc(-n3c(-c4ccccc4)nc4ccccc4c3=O)cc2)cc1OC (centres undefined) yielded a TGI [1] greater than 100 µM, a TGI [2] greater than 100 µM and a TGI [3] greater than 100 µM. The TGI [4] was greater than 100 µM, the TGI [5] was greater than 100 µM and the TGI [6] was greater than 100 µM. For the same compound, the TGI [7] was greater than 100 µM, the TGI [8] was greater than 100 µM and the TGI [9] was greater than 100 µM. It also gave a TGI [10] greater than 100 µM.
CCCc1cc(=O)oc2c3c(c4c(c12)OC(C)(C)C=C4)O[C@@H](C)[C@H](C)C3=O was tested, and the TGI [11] was 61.1 µM, the TGI [1] was 38.8 µM and the TGI [2] was 31.2 µM. It also gave a TGI [3] of 37.4 µM, a TGI [4] of 27.7 µM and a TGI [5] of 33.2 µM. The TGI [6] was 24.5 µM, the TGI [8] was 44.4 µM and the TGI [9] was 25.7 µM. It also gave a TGI [10] of 35.4 µM.
O=c1oc2ccccc2c(O)c1C(c1ccco1)c1c(O)c2ccccc2oc1=O gave a TGI [11] greater than 100 µM, a TGI [1] of 55.5 µM and a TGI [2] of 66.1 µM. For the same compound, the TGI [12] was greater than 100 µM, the TGI [4] was greater than 100 µM and the TGI [7] was greater than 100 µM. For the same compound, the TGI [8] was greater than 100 µM, the TGI [9] was 52.1 µM and the TGI [10] was greater than 100 µM.
Compound CCCCc1c2c(nc3c1CCCC3O)/C(=C/c1ccccc1)CCC2 (centres undefined) has a TGI [1] of 57 µM, a TGI [2] of 46.2 µM and a TGI [3] of 66.9 µM. The TGI [12] was greater than 100 µM, the TGI [4] was 40.5 µM and the TGI [5] was greater than 100 µM. It also gave a TGI [6] greater than 100 µM, a TGI [7] of 51.7 µM and a TGI [8] greater than 100 µM. For the same compound, the TGI [9] was 94.3 µM.
COc1cccc(NC(=S)Nn2c(C)nc3ccccc3c2=O)c1 was tested, and the TGI [1] was greater than 100 µM, the TGI [2] was greater than 100 µM and the TGI [3] was greater than 100 µM. The TGI [12] was greater than 100 µM, the TGI [4] was greater than 100 µM and the TGI [5] was greater than 100 µM. The TGI [6] was greater than 100 µM, the TGI [7] was greater than 100 µM and the TGI [8] was greater than 100 µM. The TGI [9] was greater than 100 µM.
CN1CN(c2ccccc2)C2(CCN(CCCSc3ccccc3NC(=O)/C=C/c3ccccc3)CC2)C1=O showed a TGI [11] of 18.2 µM, a TGI [1] of 29.9 µM and a TGI [3] of 6.45 µM. For the same compound, the TGI [12] was greater than 37 µM, the TGI [4] was 15.6 µM and the TGI [5] was greater than 60.5 µM. The TGI [6] was greater than 87.3 µM, the TGI [7] was 6.12 µM and the TGI [8] was 14.8 µM. For the same compound, the TGI [9] was 6.09 µM and the TGI [10] was 23.5 µM.
With COC(=O)C(O)P(=O)(OC)OC (centres undefined) the TGI [11] was greater than 100 µM, the TGI [1] was greater than 100 µM and the TGI [2] was greater than 100 µM. The TGI [12] was greater than 100 µM, the TGI [4] was greater than 100 µM and the TGI [5] was greater than 100 µM. For the same compound, the TGI [6] was greater than 100 µM, the TGI [7] was greater than 100 µM and the TGI [9] was greater than 100 µM. For the same compound, the TGI [10] was greater than 100 µM.
In the case of Cn1c(=O)cc(NCc2ccc(Cl)cc2)[nH]c1=O, the TGI [1] was greater than 100 µM, the TGI [2] was greater than 100 µM and the TGI [3] was greater than 100 µM. The TGI [12] was greater than 100 µM, the TGI [4] was greater than 100 µM and the TGI [5] was greater than 100 µM. For the same compound, the TGI [6] was greater than 100 µM, the TGI [7] was greater than 100 µM and the TGI [8] was greater than 100 µM. The TGI [9] was greater than 100 µM and the TGI [10] was greater than 100 µM.
For O=c1[nH]c(=O)n(C2CC(O)C(CO)O2)cc1OCCCc1ccccc1 (centres undefined), the TGI [11] was greater than 100 µM, the TGI [1] was greater than 100 µM and the TGI [2] was greater than 100 µM. It also gave a TGI [12] greater than 100 µM, a TGI [4] greater than 100 µM and a TGI [5] greater than 100 µM. It also gave a TGI [6] greater than 100 µM, a TGI [8] greater than 100 µM and a TGI [9] greater than 100 µM. It also gave a TGI [10] greater than 100 µM.
With CCOC(=O)c1c(C)c2c(n1C)CCc1cn[nH]c1-2 the TGI [2] was greater than 100 µM, the TGI [3] was greater than 100 µM and the TGI [12] was greater than 100 µM. The TGI [4] was greater than 100 µM, the TGI [5] was greater than 100 µM and the TGI [6] was greater than 100 µM. It also gave a TGI [7] greater than 100 µM, a TGI [8] greater than 100 µM and a TGI [9] greater than 100 µM.
With COC(OC)c1cccc2c1C(=O)CCC1(O)c3ccccc3C1C2 (centres undefined) the TGI [1] was greater than 100 µM, the TGI [2] was 69.8 µM and the TGI [3] was greater than 100 µM. For the same compound, the TGI [12] was greater than 100 µM, the TGI [4] was greater than 100 µM and the TGI [5] was greater than 100 µM. For the same compound, the TGI [6] was greater than 100 µM, the TGI [7] was greater than 100 µM and the TGI [9] was greater than 100 µM.
Compound COc1ccc(C2C3C(=O)C=CC(=O)C3[C@@H]2C)cc1OC (some centres undefined) has a TGI [1] greater than 100 µM, a TGI [2] of 63.1 µM and a TGI [3] greater than 100 µM. It also gave a TGI [12] greater than 100 µM, a TGI [4] greater than 100 µM and a TGI [5] greater than 100 µM. The TGI [6] was greater than 100 µM, the TGI [7] was greater than 100 µM and the TGI [8] was greater than 100 µM. For the same compound, the TGI [9] was greater than 100 µM.
CC(OC(=O)NCn1cc(-c2ccccc2)nn1)c1ccccc1 (centres undefined) gave a TGI [11] greater than 100 µM, a TGI [1] greater than 100 µM and a TGI [2] greater than 100 µM. For the same compound, the TGI [3] was greater than 100 µM, the TGI [4] was 75.5 µM and the TGI [5] was greater than 100 µM. The TGI [6] was greater than 100 µM, the TGI [7] was greater than 100 µM and the TGI [8] was greater than 100 µM. For the same compound, the TGI [9] was greater than 100 µM and the TGI [10] was 5.23 µM.
CCCC/C=C/C1Cc2ccccc2CN1S(=O)(=O)c1ccc(C)cc1 (centres undefined) gave a TGI [1] of 25.1 µM, a TGI [2] of 5.72 µM and a TGI [3] of 33 µM. The TGI [12] was 24.7 µM, the TGI [4] was greater than 100 µM and the TGI [5] was 82.3 µM. The TGI [6] was 26.3 µM, the TGI [7] was greater than 100 µM and the TGI [8] was 31.3 µM. The TGI [9] was 22.7 µM.
Cc1cccc2c1Oc1ccccc1C2NC(=O)c1ccc([N+](=O)[O-])cc1 (centres undefined) gave a TGI [11] greater than 100 µM, a TGI [1] greater than 100 µM and a TGI [2] greater than 100 µM. It also gave a TGI [12] greater than 100 µM, a TGI [4] greater than 100 µM and a TGI [5] greater than 100 µM. It also gave a TGI [6] greater than 100 µM, a TGI [7] greater than 100 µM and a TGI [8] greater than 100 µM. For the same compound, the TGI [9] was greater than 100 µM and the TGI [10] was greater than 100 µM.
CCCc1c(OC)c(=O)c2c(OC)cc(OC)c3c4c(OC)cc(OC)c5c(=O)c(OC)c(CCC)c(c1c23)c54 gave a TGI [11] of 24.6 µM, a TGI [1] of 26.7 µM and a TGI [3] of 30.9 µM. It also gave a TGI [12] of 28.4 µM, a TGI [5] of 29 µM and a TGI [6] of 43.7 µM. The TGI [7] was 49.8 µM, the TGI [8] was 34.5 µM and the TGI [9] was 26.2 µM.
Work on COc1cc(C2C(Cl)C(=O)N2NC(=O)c2ccccc2O)ccc1O (centres undefined) yielded a TGI [3] greater than 100 µM, a TGI [4] greater than 100 µM and a TGI [6] greater than 100 µM. For the same compound, the TGI [7] was greater than 100 µM, the TGI [8] was greater than 100 µM and the TGI [9] was greater than 100 µM.
For O=C1CN2Cc3cc(N4CCOCC4)ccc3N=C2N1, the TGI [11] was greater than 100 µM, the TGI [2] was greater than 100 µM and the TGI [12] was greater than 100 µM. The TGI [4] was greater than 100 µM, the TGI [5] was greater than 100 µM and the TGI [7] was greater than 100 µM. It also gave a TGI [8] greater than 100 µM, a TGI [9] greater than 100 µM and a TGI [10] greater than 100 µM.
With O=c1cc(N2CCOCC2)[nH]c(=O)n1-c1cccc(C(F)(F)F)c1 the TGI [11] was greater than 100 µM, the TGI [1] was greater than 100 µM and the TGI [3] was greater than 100 µM. For the same compound, the TGI [12] was greater than 100 µM, the TGI [4] was greater than 100 µM and the TGI [5] was greater than 100 µM. The TGI [6] was greater than 100 µM, the TGI [7] was greater than 100 µM and the TGI [8] was greater than 100 µM. The TGI [9] was greater than 100 µM.
CC(=O)O/N=C/c1ncccc1OC(C)=O gave a TGI [1] greater than 100 µM, a TGI [3] greater than 100 µM and a TGI [12] greater than 100 µM. It also gave a TGI [4] greater than 100 µM, a TGI [5] greater than 100 µM and a TGI [6] greater than 100 µM. The TGI [7] was greater than 100 µM, the TGI [8] was greater than 100 µM and the TGI [9] was greater than 100 µM.
For CCCn1c(SCC)c2ccccc2c1-c1nc(F)nc(F)n1, the TGI [1] was greater than 100 µM, the TGI [2] was greater than 100 µM and the TGI [3] was greater than 100 µM. For the same compound, the TGI [12] was greater than 100 µM, the TGI [4] was greater than 100 µM and the TGI [5] was greater than 100 µM. For the same compound, the TGI [6] was greater than 100 µM, the TGI [7] was greater than 100 µM and the TGI [8] was greater than 100 µM. The TGI [9] was greater than 100 µM.
In the case of CC1(C2(C)OC(=O)c3ccccc32)OC(=O)c2ccccc21 (centres undefined), the TGI [11] was greater than 100 µM, the TGI [1] was greater than 100 µM and the TGI [2] was greater than 100 µM. For the same compound, the TGI [3] was greater than 100 µM, the TGI [12] was greater than 100 µM and the TGI [6] was greater than 100 µM. The TGI [7] was greater than 100 µM, the TGI [8] was greater than 100 µM and the TGI [9] was greater than 100 µM. It also gave a TGI [10] greater than 100 µM.
